Here are results for 25 compounds from patent US8354414B2, “Substituted bicyclic pyrimidines” (Cephalon, Inc, priority 2006, dated 2013).

One series deals with T1, CDK5/GST-p25 (Homo sapiens, UniProt Q00535).
T1 construct: The final construct, encoding for full-length human CDK5; made in house; host or cells: Sf21 insect cells (baculovirus co-infection)
Nature of the series: Inhibition of CDK5/GST-p25 kinase activity (ELISA with time-resolved fluorescence readout). The series is classed as biochemical. An outline of the steps:
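The substrate, GST-Rb(773-928), was immobilised on plates and phosphorylated for 20 min at 37 °C by 2 ng/ml CDK5/GST-p25 in HEPES pH 7.2 with 10 µM ATP and 10 mM MgCl2. Both proteins were human and co-expressed in insect cells. Ser-780 phosphorylation was read by europium time-resolved fluorescence and converted to IC50.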

Another series addresses T2, His6-GSK-3β (Homo sapiens, UniProt P49841).
T2 construct: made in house; host or cells: Sf21 insect cells (baculovirus)
Nature of the series: Inhibition of His6-GSK-3β kinase activity (ELISA-based format, time-resolved fluorescence readout). The settings on record: class symbols; read-out: GSK3β IC50. The series is classed as biochemical. In a few lines: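 Plate-bound recombinant GST-Rb substrate was phosphorylated for 30 min at 37° C by baculovirus-expressed His6-GSK-3β (200 ng/ml) at 20 μM ATP, 10 mM MgCl2, 2.5% DMSO. Europium time-resolved fluorescence of anti-phospho-Ser780 Rb signal gave inhibition, fitted to IC50.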

T1 sequence (Q00535 whole entry): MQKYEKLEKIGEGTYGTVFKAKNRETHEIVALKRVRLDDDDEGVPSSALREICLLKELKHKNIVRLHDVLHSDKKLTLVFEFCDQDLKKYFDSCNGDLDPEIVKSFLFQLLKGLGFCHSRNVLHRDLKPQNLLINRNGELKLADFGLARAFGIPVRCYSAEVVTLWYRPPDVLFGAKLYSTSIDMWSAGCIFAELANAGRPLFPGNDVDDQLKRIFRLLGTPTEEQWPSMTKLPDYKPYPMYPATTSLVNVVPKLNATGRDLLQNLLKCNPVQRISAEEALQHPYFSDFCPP
T1 sequence (Q15078 108-307 partner limits assumed): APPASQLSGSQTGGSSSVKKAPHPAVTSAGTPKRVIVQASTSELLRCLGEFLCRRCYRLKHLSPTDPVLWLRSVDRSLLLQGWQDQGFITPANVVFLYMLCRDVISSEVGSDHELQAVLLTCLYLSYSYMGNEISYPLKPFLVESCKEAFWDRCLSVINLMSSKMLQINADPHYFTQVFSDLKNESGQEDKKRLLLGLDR
T2 sequence (P49841 2-419): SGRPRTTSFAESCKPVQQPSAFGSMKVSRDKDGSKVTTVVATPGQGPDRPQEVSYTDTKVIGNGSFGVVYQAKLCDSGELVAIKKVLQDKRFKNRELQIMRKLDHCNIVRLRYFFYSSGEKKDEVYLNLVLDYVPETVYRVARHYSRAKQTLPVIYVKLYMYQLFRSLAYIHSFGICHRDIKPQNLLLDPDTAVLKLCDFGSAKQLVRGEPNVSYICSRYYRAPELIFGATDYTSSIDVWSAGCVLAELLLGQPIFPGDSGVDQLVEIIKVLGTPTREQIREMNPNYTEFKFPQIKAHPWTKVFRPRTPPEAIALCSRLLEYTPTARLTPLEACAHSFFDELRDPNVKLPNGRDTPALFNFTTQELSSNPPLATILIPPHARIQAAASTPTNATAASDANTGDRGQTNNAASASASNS

`CCCn1cc2c(C3C(=O)Nc4ccc(Br)cc43)nc(NCc3cccnc3)nc2n1` (stereo not drawn) [Example 196, 5-Bromo-3-{2-propyl-6-[(pyridin-3-ylmethyl)-amino]-2H-pyrazolo[3,4-d]pyrimidin-4-yl}-1,3-dihydro-indol-2-one] had a melting point of 277 to 281 °C. The IC50 against CDK5/GST-p25 (class symbols) is under 300 nM. The IC50 at His6-GSK-3β was under 300 nM.

`CCOCCn1cc2c(C3C(=O)Nc4ccc(Cl)cc43)nc(NCCN3CCOCC3)nc2n1` (stereo not drawn) [Example 217, 5-Chloro-3-[2-(2-ethoxy-ethyl)-6-(2-morpholin-4-yl-ethylamino)-2H-pyrazolo [3,4-d]pyrimidin-4-yl]-1,3-dihydro-indol-2-one] registered a melting point of 293 to 294 °C. At CDK5/GST-p25 (class symbols), the IC50 is under 300 nM. In addition, the IC50 on His6-GSK-3β was under 300 nM.

On to `N#Cc1ccc2c(c1)NC(=O)C2c1ncnc2c1cnn2C1CCCC1` (stereo not drawn) [Example 63, 3-(1-Cyclopentyl-1H-pyrazolo [3,4-d]pyrimidin-4-yl)-2-oxo-2,3-dihydro-1H-indole-6-carbonitrile], for which the melting point was 335 to 338 °C. In addition, the IC50 against CDK5/GST-p25 (class symbols) was over 10000 nM. In addition, the IC50 at His6-GSK-3β was 300 to 3000 nM.

Consider `O=C1Nc2ccccc2C1c1ncnc2nn(C3CCCC3)cc12` (stereo not drawn) [Example 37, 3-(2-Cyclopentyl-2H-pyrazolo[3,4-d]pyrimidin-4-yl)-1,3-dihydro-indo-2-one], for which the melting point lay in the range of 289 to 292 °C. The compound also returned an IC50 against CDK5/GST-p25 (class symbols) of 300 to 3000 nM. In addition, the IC50 at His6-GSK-3β lay in the range of 300 to 3000 nM.

Regarding `CCCn1ncc2c(C3C(=O)Nc4ccc(Cl)cc43)ncnc21` (stereo not drawn) [Example 95, 5-Chloro-3-(1-propyl-2H-pyrazolo[3,4-d]pyrimidin-4-yl)-1,3-dihydro-indol-2-one], the melting point fell in the range of 293 to 297 °C. This compound had an IC50 on CDK5/GST-p25 (numeric bounds) of over 3000 nM. Moreover, the IC50 at His6-GSK-3β was over 10000 nM.

In the case of `O=C1Nc2ccccc2C1c1nc(NCc2ccncc2)nc2nn(C3CCCC3)cc12` (stereo not drawn) [Example 241, 3-{2-Cyclopentyl-6-[(pyridin-4-ylmethyl)-amino]-2H-pyrazolo[3,4-d]pyrimidin-4-yl}-1,3-dihydro-indol-2-one], the melting point is 198 to 200 °C. For the same compound, at CDK5/GST-p25 (class symbols), the IC50 is 300 to 3000 nM. Moreover, at His6-GSK-3β, the IC50 was under 300 nM.

As for `O=C1Nc2ccc(Cl)cc2C1c1ncnc2nn(C3CCCCC3)cc12` (stereo not drawn) [Example 48, 5-Chloro-3-(2-cyclohexyl-2H-pyrazolo[3,4-d]pyrimidin-4-yl)-1,3-dihydro-indol-2-one], the melting point lay in the range of 294 to 298 °C. The same compound returned an IC50 against CDK5/GST-p25 (class symbols) of 300 to 3000 nM. Moreover, at His6-GSK-3β, the IC50 is under 300 nM.

On to `CNCCNc1nc(C2C(=O)Nc3ccc(Br)cc32)c2cn(C3CCCC3)nc2n1.Cl` (stereo not drawn) [Example 378, 5-Bromo-3-[2-cyclopentyl-6-(2-methylamino-ethylamino)-2H-pyrazolo [3,4-d]pyrimidin-4-yl]-1,3-dihydro-indol-2-one hydrochloride salt], for which the melting point lay within 201 to 204 °C. Further, the half-maximal inhibitory concentration (IC50) on CDK5/GST-p25 (numeric bounds) is over 3000 nM. Moreover, on His6-GSK-3β, the IC50 lay in the range of 300 to 3000 nM.

The compound `[N-]=[N+]=NCCCn1cc2c(C3C(=O)Nc4ccc(Br)cc43)ncnc2n1` (stereo not drawn) [Example 89, 3-[2-(3-azido-propyl)-2H-pyrazolo[3,4-d]pyrimidin-4-yl]-5-bromo-1,3-dihydro-indol-2-one] registered a melting point of 252 to 256 °C. In addition, the IC50 on CDK5/GST-p25 (class symbols) is under 300 nM. The IC50 on His6-GSK-3β is under 300 nM.

In the case of `CCCn1cc2c(C3C(=O)Nc4ccc(S(=O)(=O)N(C)C)cc43)nc(NCCN(C)C)nc2n1` (stereo not drawn) [Example 205, 3-[6-(2-Dimethylamino-ethylamino)-2-propyl-2H-pyrazolo [3,4-d]pyrimidin-4-yl]-2-oxo-2,3-dihydro-1H-indole-5-sulfonic acid dimethylamide], the melting point lay in the range of 259 to 263 °C. This compound displayed a concentration for half-maximal inhibition (IC50) on CDK5/GST-p25 (numeric bounds) of over 3000 nM. The IC50 at His6-GSK-3β is over 10000 nM.

`CCCn1cc2c(C3C(=O)Nc4ccc(F)cc43)ncnc2n1` (stereo not drawn) [Example 100]: the melting point was 288 to 292 °C. On CDK5/GST-p25 (class symbols), this compound registered an IC50 of under 300 nM. Moreover, at His6-GSK-3β, the IC50 was in the range of 300 to 3000 nM.

The compound `CCOCCn1cc2c(C3C(=O)Nc4ccc(Cl)cc43)nc(NC[C@H](C)O)nc2n1` (stereo partly drawn) [Example 219, 5-Chloro-3-[2-(2-ethoxy-ethyl)-6-((S)-2-hydroxy-propylamino)-2H-pyrazolo [3,4-d]pyrimidin-4-yl]-1,3-dihydro-indol-2-one] returned a melting point of over 300 °C. Also, the IC50 against CDK5/GST-p25 (class symbols) is under 300 nM. Besides, the IC50 at His6-GSK-3β is under 300 nM.

On to `CC(=O)NCCNc1nc(C2C(=O)Nc3ccc(Cl)cc32)c2cn(C3CCCC3)nc2n1` (stereo not drawn) [Example 276, N-{2-[4(5-Chloro-2-oxo-2,3-dihydro-1H-indol-3-yl)-2-cyclopentyl-2H-pyrazolo[3,4-d]pyrimidin-6-ylamino]-ethyl}-acetamide], for which the melting point lay in the range of 209 to 226 °C. The same compound returned a concentration for half-maximal inhibition (IC50) against CDK5/GST-p25 (class symbols) of 300 to 3000 nM. In addition, at His6-GSK-3β, the IC50 was under 300 nM.

Take `CCCCCn1cc2c(C3C(=O)Nc4ccc(C#N)cc43)nc(Cl)nc2n1` (stereo not drawn) [Example 291, 3-(6-Chloro-2-pentyl-2H-pyrazolo [3,4-d]pyrimidin-4-yl)-2-oxo-2,3-dihydro-1H-indole-5-carbonitrile]: the melting point is 254 °C (dec.). Further, on CDK5/GST-p25 (numeric bounds), the IC50 is over 3000 nM. Moreover, at His6-GSK-3β, the IC50 was 300 to 3000 nM.

Regarding `O=C1Nc2ccc([N+](=O)[O-])cc2C1c1ncnc2c1cnn2C1CCCC1` (stereo not drawn) [Example 57, 3-(1-Cyclopentyl-1H-pyrazolo[3,4-d]pyrimidin-4-yl)-5-nitro-1,3-dihydro-indol-2-one], the melting point is > 300 °C (dec.). This compound also displayed an IC50 against CDK5/GST-p25 (class symbols) of over 10000 nM. Besides, the IC50 at His6-GSK-3β is 300 to 3000 nM.

`CC(C)Cn1cc2c(C3C(=O)Nc4ccc(Cl)cc43)nc(NCCCN3CCOCC3)nc2n1` (stereo not drawn) [Example 271, 5-Chloro-3-[2-isobutyl-6-(3-morpholin-4-yl-propylamino)-2H-pyrazolo[3,4-d]pyrimidin-4-yl]-1,3-dihydro-indol-2-one]: the melting point was in the range of 263 to 265.5 °C. The same compound returned an IC50 against CDK5/GST-p25 (class symbols) of under 300 nM. Also, at His6-GSK-3β, the IC50 was under 300 nM.

As to `C[C@H](O)CNc1nc(C2C(=O)Nc3ccc(Br)cc32)c2cn(C)nc2n1` (stereo partly drawn) [Example 304, 5-Bromo-3-[6-(2-(S)-hydroxypropylamino)-2-methyl-2H-pyrazolo [3,4-d]pyrimidin-4-yl]-1,3-dihydro-indol-2-one], the melting point was in the range of 338 to 340 °C. For the same compound, on CDK5/GST-p25 (class symbols), the IC50 is under 300 nM. Moreover, the IC50 on His6-GSK-3β is under 300 nM.

`O=C1Nc2ccc(C(F)(F)F)cc2C1c1ncnc2c1cnn2C1CCCCC1` (stereo not drawn) [Example 71, 3-(1-Cyclohexyl-1H-pyrazolo [3,4-d]pyrimidin-4-yl)-5-trifluoromethyl-1,3-dihydro-indol-2-one]: the melting point was over 300 °C. Besides, at CDK5/GST-p25 (class symbols), the IC50 is over 10000 nM. Also, the IC50 on His6-GSK-3β is over 10000 nM.

Regarding `N#Cc1ccc2c(c1)C(c1ncnc3nn(C4CCCC4)cc13)C(=O)N2` (stereo not drawn) [Example 30, 3-(2-Cyclopentyl-2H-pyrazolo[3,4-d]pyrimidin-4-yl)-2-oxo-2,3-dihydro-1H-indole-5-carbonitrile], the melting point was > 300 °C (dec.). Also, on CDK5/GST-p25 (class symbols), the IC50 was under 300 nM. In addition, the 50% inhibitory concentration (IC50) on His6-GSK-3β is under 300 nM.

As for `CN(C)CCNc1nc(C2C(=O)Nc3ccc(Cl)cc32)c2cn(C3CCCC3)nc2n1` (stereo not drawn) [Example 376, 5-Chloro-3-[2-cyclopentyl-6-(2-dimethylamino-ethylamino)-2H-pyrazolo [3,4-d]pyrimidin-4-yl]-1,3-dihydro-indol-2-one], the melting point lay within 145 to 148 °C. The IC50 on CDK5/GST-p25 (class symbols) was over 10000 nM. For the same compound, the IC50 at His6-GSK-3β lay within 300 to 3000 nM.

As to `CCCCCn1cc2c(C3C(=O)Nc4ccc(C(F)(F)F)cc43)nc(NCCCN)nc2n1` (stereo not drawn) [Example 289, 3-[6-(3-Amino-propylamino)-2-pentyl-2H-pyrazolo[3,4-d]pyrimidin-4-yl]-5-trifluoromethyl-1,3-dihydro-indol-2-one], the melting point was 235 °C (dec.). Also, the IC50 against CDK5/GST-p25 (class symbols) was under 300 nM. In addition, the IC50 on His6-GSK-3β was under 300 nM.

Regarding `CC(C)Cn1cc2c(C3C(=O)Nc4ccc(Br)cc43)nc(NCCN(C)C)nc2n1` (stereo not drawn) [Example 268, 5-Bromo-3-[6-(2-dimethylamino-ethylamino)-2-isobutyl-2H-pyrazolo[3,4-d]pyrimidin-4-yl]-1,3-dihydro-indol-2-one], the melting point fell in the range of 261 to 264.5 °C. Further, the IC50 against CDK5/GST-p25 (class symbols) is under 300 nM. The IC50 at His6-GSK-3β is under 300 nM.

As to `CC(C)Nc1nc(C2C(=O)Nc3ccc(C(F)(F)F)cc32)c2cn(C3CCCC3)nc2n1` (stereo not drawn) [Example 250, 3-(2-Cyclopentyl-6-isopropylamino-2H-pyrazolo[3,4-d]pyrimidin-4-yl)-5-trifluoromethyl-1,3-dihydro-indol-2-one], the melting point lay within 299 to 301 °C. Besides, at CDK5/GST-p25 (class symbols), the IC50 was over 10000 nM. For the same compound, the IC50 at His6-GSK-3β is under 300 nM.

Compound `N#Cc1ccc2c(c1)NC(=O)C2c1ncnc2c1cnn2C1CCCCC1` (stereo not drawn) [Example 69, 3-(1-Cyclohexyl-1H-pyrazolo[3,4-d]pyrimidin-4-yl)-2-oxo-2,3-dihydro-1H-indole-6-carbonitrile] yielded a melting point of over 300 °C. The compound also displayed an IC50 on CDK5/GST-p25 (numeric bounds) of over 3000 nM. In addition, the concentration for half-maximal inhibition (IC50) at His6-GSK-3β is over 10000 nM.

On to `CCCCCn1cc2c(C3C(=O)Nc4ccc(C#N)cc43)nc(NC(C)C)nc2n1` (stereo not drawn) [Example 295, 3-(6-Isopropylamino-2-pentyl-2H-pyrazolo[3,4-d]pyrimidin-4-yl)-2-oxo-2,3-dihydro-1H-indole-5-carbonitrile], for which the melting point was 199 °C (dec.). On CDK5/GST-p25 (class symbols), this compound returned an IC50 of under 300 nM. Also, the IC50 at His6-GSK-3β was under 300 nM.
